Measurements from the C3SDB collision cross section collection.

Key:
[1] = instrument: DT, stepped-field
[2] = instrument: DT, single field, calibrated with Agilent tune mix (Agilent)
[3] = instrument: DT, stepped-field; remark: listed apart in the source

Row | SMILES | collision cross section (N2) ([1]; [M-H]-) | collision cross section (N2) ([1]; [M+H]+) | also measured
1 | CCCCC/C=C\C/C=C\C/C=C\CCCCCCC(=O)O [Dihomo-gamma-Linolenic Acid] | 183.02 Å² | – | –
2 | NC(N)=NCCC[C@H](N)C(=O)O [L-Arginine] | 138.03 Å² | 136.84 Å² | collision cross section (N2) ([2]; [M+H]+): 136.4 Å²; collision cross section (N2) ([3]; [M+Na]+): 147.8 Å²
3 | CC[C@H](C)[C@H](N)C(=O)O [L-Isoleucine] | 131.29 Å² | 133.81 Å² | collision cross section (N2) ([3]; [M+H]+): 136.97 Å²
4 | CSCC[C@H](N)C(=O)O [L-Methionine] | – | 134.08 Å² | collision cross section (N2) ([3]; [M+H]+): 133.65 Å²
5 | N[C@@H](Cc1ccccc1)C(=O)O [L-Phenylalanine] | 141.29 Å² | 141.28 Å² | collision cross section (N2) ([2]; [M+H]+): 140.3 Å²; collision cross section (N2) ([3]; [M+Na]+): 138.91 Å²
6 | N[C@@H](Cc1ccc(O)cc1)C(=O)O [L-Tyrosine] | 145.59 Å² | 146.45 Å² | collision cross section (N2) ([2]; [M+H]+): 145.7 Å²; collision cross section (N2) ([3]; [M+Na]+): 143.97 Å²
7 | CCCCCCCCCCCCCCCCC(=O)O [Margaric acid] | 173.41 Å² | – | –
8 | CCCCCCCC/C=C\CCCCCCCC(=O)O [Oleic acid] | 176.46 Å² | – | collision cross section (N2) ([2]; [M-H]-): 173.88 Å²
9 | CCCCCCCCCCCCCCC(=O)O [Pentadecanoic acid] | 165.34 Å² | – | –
10 | CCCCCCCCCCCCCCCCCC(=O)O [Stearic acid] | 177.66 Å² | – | collision cross section (N2) ([2]; [M-H]-): 174.42 Å²
11 | OC[C@H]1OC(O)[C@H](O)[C@@H](O)[C@@H]1O (stereo partly drawn) [a-D-Glucose] | – | – | collision cross section (N2) ([1]; [M+Na]+): 147.35 Å²
12 | CCCCC/C=C\C/C=C\CCCCCCCCCC(=O)O [cis-11,14-Eicosadienoic acid] | 183.32 Å² | – | –
13 | CCCCCCCC/C=C\CCCCCCCCCC(=O)O [cis-Gondoic acid] | 184.29 Å² | – | –
